row,melting point [°C],SMILES
1,134,COC(=O)C1(C)Oc2ccc(Cl)cc2C(C)(c2ccccc2)O1 (stereo not given)
2,100 to 101,Cc1oc(-c2ccccc2)nc1COc1ccc(Cn2cc(CO)cn2)cc1
3,120 to 123,Cc1cccc(C#Cc2cccc(C#N)c2)n1
4,296 to 298,COc1ccc(Cc2ccc(-c3cnn4c(O)ncnc34)cc2)cc1
5,189 to 190,CCCc1c(C(=O)NCc2ccc3cc(O)ccc3c2)cnn1-c1ccccc1
6,241 to 243,COC(=O)c1cc(-c2ccccc2)c(=O)n2c1-c1sccc1S(=O)(=O)C=C2
7,212,O=C(c1ccccc1NCc1ccncc1)[NH+]([O-])c1cc2ccccc2cn1 (stereo not given)
8,88 to 89,CCOC(=O)CCc1ccc(OCc2nc(-c3ccco3)oc2C)c(OC)c1
9,260 to 261,COc1cc(Nc2nsc(-c3ccccc3)n2)ccc1-c1cnco1
10,162 to 163,N#Cc1ccccc1-c1ccc(CNc2cc(Cl)nc3ccnn23)cc1
11,186 to 188,CCCC(=O)c1cnc2c(OC)cccc2c1Nc1cccc(CO)c1C
12,201 to 202,NC1CCN(C(=O)c2ccc(-c3[nH]nc4c3C(=O)c3c(NC(=O)NN5CCOCC5)cccc3-4)s2)C1 (stereo not given)
13,129 to 130,Cc1nccn1-c1nc(-c2ccc(Cl)cc2)c(CCCn2cccn2)o1
14,184,O=C(Nc1ccc(Cl)c(Cl)c1)O[C@H]1COC(c2ccccc2)=N[C@@H]1c1ccccc1 (racemic)
15,237 to 239,c1ccc(Nc2ccc3nnn(Cc4ccc5ncccc5c4)c3n2)cc1
16,164 to 165,O=C(O)c1cccc(-c2ccc3c(c2)C(Nc2ccc(Cl)cc2Cl)CO3)c1 (stereo not given)
17,258,CC(C)(C)NOC(=O)c1n[nH]c2c(=O)[nH]c3cc(Cl)ccc3c(=O)c12
18,165,CCN(CC)c1ccc(-c2cc(-c3ccc(C(=O)O)cc3)ccc2OCCCCO)cc1C(C)(C)C
19,177 to 178,COc1ccc2cc(C#N)ccc2c1Br
20,96 to 98.5,CC(C)(C)C1(O)CCN(CC2c3ccccc3CCc3ccccc32)CC1
21,160,COc1ccc(N=C(C#CSc2ccccc2)N2CCN(C)CC2)cc1
22,290 to 292,CCCCNCCOc1ccc(NC(=O)c2c[nH]c3c2C(=O)CCC3)cc1F

row,melting point [°C],SMILES
1,150,CCOC(=O)c1cc(NC(=O)NCC(=O)N2[C@@H](C(=O)OC(C)(C)C)CC[C@H]2c2ccccc2)ccc1O (racemic)
2,139 to 142,COc1cc(N)c(Cl)cc1C(=O)NCC1CCN(CCCCCNC(=O)c2cccc(Cl)c2)CC1
3,222 to 223,CCOC(=O)c1ccc(NC(=O)Cc2csc3nc(C(=O)NCc4cccc(OC)c4)[nH]c(=O)c23)cc1
4,112,COc1ccc(C=C(C#N)c2ccccn2)cc1OC
5,288 to 292,Cn1c2c(c3c4c(N)nc(N)nc4ccc31)CCCC2
6,146 to 152,COc1cccc(N(CCN2CCC(C(=O)c3ccc(F)cc3)CC2)C(=O)c2ccc(NC(C)=O)cc2)c1
7,210 to 211,Cc1cccc(NC(=O)Nc2c(-c3ccccc3Cl)c3cc(C)c(C)cc3n(C)c2=O)c1
8,130 to 131,CN(CCc1ccc(Nc2ncc3c(n2)-c2ccccc2C(c2ccc(Cl)c(Cl)c2)C3)cc1)C1CCCCC1 (stereo not given)
9,139 to 140,O=C(O)c1ccccc1OCCN1CCC(c2cn(CCC3COCCO3)c3ccccc23)CC1 (stereo not given)
10,206 to 208,O=C(Nc1ccc2cc(CN3CCCC3)cnc2c1F)c1ccc(-c2ccc(Cl)cc2)cc1
11,321 to 323,CS(=O)c1ccccc1-c1cc2[nH]c3ccc(O)cc3c2c2c1C(=O)NC2=O (stereo not given)
12,238,Oc1ccc([C@@H]2CCc3cc(O)ccc3[C@@H]2Cn2ccnc2)cc1 (relative stereo)
13,196 to 198,CC1(C)C(=O)Oc2ccc3ccc(C(C#N)n4cncn4)cc3c21 (stereo not given)
14,151 to 154,CCC1c2cccn2-c2ccc(C(F)(F)F)cc2N1S(=O)(=O)c1ccc(OC)c(C)c1 (stereo not given)
15,159 to 161,CSc1ccc(CSc2cccc(C(=O)Nc3ccc(Cl)cn3)c2)cc1
16,104,COc1cc(Nc2nccc(Nc3ccc(N4CCN(C)CC4)cc3)n2)cc(OC)c1OC
17,93 to 96,COc1cc(C(=O)COC(C)=O)ccc1OCCCCl
18,190 to 192,COc1cn(-c2ccc(-n3cc(Cl)cn3)cc2F)nc(-c2ccnn2-c2ccccc2)c1=O
19,168 to 169,CCCCCC(COc1ccc(C(=O)O)cc1)c1ccc2c(c1)C(C)(C)CCS2 (racemic)
20,74 to 80,COC(=O)c1ccccc1OCCCn1c(C(=O)C2CCN(CCC3(c4ccccc4)CCN(C(=O)c4cc(OC)c(OC)c(OC)c4)C3)CC2)nc2ccccc21 (stereo not given)
21,162 to 165,Cc1c(Nc2c(C#N)cncc2-c2cc3cc(CN4CCN(C)CC4)ccc3o2)ccc2[nH]ccc12

# Continued, compound first:
row,SMILES,melting point [°C]
1,Cc1cccc(-c2ccc(-c3cnn(Cc4ccc([N+](=O)[O-])cc4)c(=O)c3-c3ccc(F)cc3)cc2)c1S(=O)(=O)O,183 to 184
2,Cc1cc(-c2ccccc2Cl)nn1C(C)(C)C(=O)N(C)C,104 to 106
3,O[C@H]1CC[C@H](Oc2cccc3onc(OCC4CCN(CC5(O)CCOCC5)CC4)c23)C1 (relative stereo),147
4,CCOC(=O)/C=C/c1ccc(C2COc3c(C)c(C)c(NC(=O)CC(C)(C)C)c(C)c32)cc1 (stereo not given),176 to 177
5,C=CCNC(=O)C(C#N)C(=O)C1CC1 (stereo not given),72 to 73.5
6,CC(C)C[C@H]1C(=O)NC2CCC(=O)N21 (stereo not given in full),156 to 157
7,N#CCCCCc1cccc2cncn12,72 to 75
8,O=Cc1cn(-c2ccccc2)nc1OCc1ccccc1,153 to 154
9,O=C(CC(=O)OCc1ccc([N+](=O)[O-])cc1)CC1CC(=O)N1 (stereo not given),50 to 52
10,CCCC12CCC3C4CCC(=O)C=C4CCC3C1CCC2(O)CC (stereo not given),93 to 95
11,O=C1N(Cc2sc(C(F)(F)F)cc2O)c2ccccc2C12COc1cc3c(cc12)OCO3 (stereo not given),225 to 227
12,COC(=O)Cc1ccc(OS(=O)(=O)C(F)(F)F)c([N+](=O)[O-])c1,44 to 45
13,O=[N+]([O-])c1ccc(Oc2cncc(Cl)n2)cc1,125 to 127
14,CSC1NC(=O)N(c2ccc(C)cc2)C(=O)N1N=C(C)C (stereo not given),170 to 173
15,C=C1CC2(C)C(=O)CC(O)C2C2CCC3=CC(=O)CCC3C12 (stereo not given),237
16,CCOC(=O)c1cc(C#N)c(C)nc1Cl,43 to 45
17,O=C(O)N1CCN(C(=O)c2cccs2)CC1,76
18,CC(C)(C)OOC(C)(C)c1ccc(C(C)(C)OOC(C)(C)C)cc1,76 to 77
19,CCCCCCCCCCCCCCOC(=O)CCC1(CO)CCC(=O)O1 (stereo not given),59

row,SMILES,melting point [°C]
1,O=[N+]([O-])c1ccc(-c2cnc3nc(S(=O)(=O)Cl)nn3c2)cc1,159 to 167
2,SC12CC3CC(CC(C3)C1)C2,101 to 103
3,CCCCN(c1nc(N(CC)CC)nc(N(CCCC)C2CC(C)(C)N(OC)C(C)(C)C2)n1)C1CC(C)(C)N(OC)C(C)(C)C1,109 to 112
4,COC(=O)Cc1cc2cc(O)ccc2s1,136 to 137
5,Cc1ccc(S(=O)(=O)NC[C@H](F)Cc2ccccc2)cc1,130 to 133
6,O=[N+]([O-])N=C1NCCN1Cc1ccc(OCC(F)(F)F)nc1,109 to 112
7,C=CC(=O)NC1CC(C)(C)N(C=CC(=O)OCC)C(C)(C)C1,123 to 125
8,C=C=CC(C)(O)c1ccc(Br)cc1 (stereo not given),45 to 50
9,CN(C)CCc1c(CC(N)=O)c2ccccc2n1C,131 to 134
10,CC1CC(c2cccc(Cl)c2)=NNC1=O (stereo not given),150 to 151
11,CCN1C(=O)C2C3C=CC(CC3)C2(c2ccc(Cl)c(Cl)c2)C1=O (stereo not given),122 to 126
12,CC(C(=O)O)c1cc(F)c([N+](=O)[O-])cc1[N+](=O)[O-] (stereo not given),141 to 142
13,CCOC(=O)N1CCC(CCCOc2ccc(C3=NCCCO3)cc2)CC1,128
14,CC(=O)CCC(=O)N(C)c1nnc(-c2cccnc2)s1,146 to 147
15,CC(C)C(C)(NC(=O)c1nc2ccc(OC(F)F)cc2cc1C(=O)O)C(N)=O (stereo not given),194 to 196
16,COC(=O)C1=C(O)c2sc(C(F)(F)F)cc2S(=O)(=O)N1,168 to 170
17,COCCOCOc1c(C(C)(C)C)cc(-c2noc(=O)[nH]2)cc1C(C)(C)C,112 to 114
18,N#CC1c2ccccc2COc2ccc(Cl)cc21 (stereo not given),113 to 115
19,CN(C(F)F)S(=O)(=O)c1ccccc1S(N)(=O)=O,128

row,SMILES,melting point [°C]
1,C#CC(C)(C)c1cc(NC(=O)NC)no1,99 to 100
2,COC1Nc2c(ccc(C)c2O)C(=O)N2CCCC12 (stereo not given),152 to 156
3,O=c1[nH]c(-c2ccc(Cl)c(Cl)c2)co1,262 to 263
4,N=C(N)Nc1nc(-c2nc(N)n[nH]2)cs1,173 to 175
5,COC(=O)c1ccc(F)c2c1C=CCO2,73.5 to 74.5
6,N=C(N)NCCC[C@H](NC(=O)CNC(=O)C(CS)Cc1ccccc1)C(=O)O (stereo not given in full),120 to 137
7,CCCCCN(CCCCC)C(=O)CCCCC(=O)O,152
8,O=c1oc2c(c(O)c1C(c1ccccc1)C1CC1)CCCCC2Cc1ccccc1 (stereo not given),178 to 182
9,O=C1C=CC2=CN=C(c3ccco3)N3CCC(=C23)N1,278 to 279
10,CCOC(=O)c1ncn(-c2nn(C)cc2Cl)c1S(N)(=O)=O,167 to 168
11,CC(C)(C)OC(=O)c1nc(-c2ccccc2)[nH]c1C1CCCCC1,222 to 223
12,Cc1cc(O)c([N+](=O)[O-])c(=O)n1CC(=O)OCc1ccccc1,146 to 147
13,CCC1Nc2cc(F)c(F)cc2-n2cccc21 (stereo not given),67 to 69
14,OCc1cc(Cl)cc(Cl)c1Cl,90 to 93
15,O=C(O)CCCC(=O)CNC(=O)c1csc(NC(=O)NCc2ccccc2)n1,169
16,O=[N+]([O-])c1cc(C(F)(F)F)ccc1-c1ccno1,62 to 63
17,CN1C(=O)N(CCCC(NS(=O)(=O)c2ccc(-c3ccc(Cl)cc3)cc2)C(=O)O)C(=O)C1(C)C (stereo not given),68 to 71
18,CN(N(C)S(C)(=O)=O)S(C)(=O)=O,168 to 169
19,O=C(O)CCCCCCCCNS(=O)(=O)c1cccc(Cl)c1,112 to 113
